Laboratory results published in patent US10231954B2, “Neurodegenerative therapies” (LYTIX BIOPHARMA AS, priority 2014, dated 2019).

How the values were obtained:
Assay type in all cases: biochemical
SIK3 = SIK3 (Homo sapiens, UniProt Q9Y2K2); assay: Kinase profiling SIK3; settings: 100 micromolar inhibitor concentration, 100 is no change; for remaining activity at 100 µM: read-out: residual kinase activity, SIK3
From the text: (§1) Any value less that 25 is considered to be highly significant inhibition.

TTBK2 = TTBK2 (Homo sapiens, UniProt Q6IQ55); assay: Kinase profiling TTBK2; settings: 100 micromolar inhibitor concentration, 100 is no change; for remaining activity at 100 µM: read-out: residual kinase activity, TTBK2
From the text: as §1

NEK2a = biological target: T1, NEK2a (Homo sapiens, UniProt P51955); assay: Kinase profiling NEK2a; settings: 100 micromolar inhibitor concentration, 100 is no change; for remaining activity at 100 µM: read-out: residual kinase activity, NEK2a
T1 sequence (P51955 1-445): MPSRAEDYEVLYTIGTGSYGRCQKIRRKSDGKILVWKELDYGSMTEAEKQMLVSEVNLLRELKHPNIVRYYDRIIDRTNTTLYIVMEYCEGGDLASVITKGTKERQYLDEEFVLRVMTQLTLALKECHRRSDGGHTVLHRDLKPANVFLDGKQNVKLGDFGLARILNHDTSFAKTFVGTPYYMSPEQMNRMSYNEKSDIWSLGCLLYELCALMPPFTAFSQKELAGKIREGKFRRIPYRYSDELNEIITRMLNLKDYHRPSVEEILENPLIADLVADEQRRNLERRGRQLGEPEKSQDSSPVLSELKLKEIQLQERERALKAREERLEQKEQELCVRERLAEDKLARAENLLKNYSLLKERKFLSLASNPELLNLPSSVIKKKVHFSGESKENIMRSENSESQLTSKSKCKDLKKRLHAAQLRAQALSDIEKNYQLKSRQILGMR
From the text: as §1

HIPK1 = HIPK1 (Homo sapiens, UniProt Q86Z02); assay: Kinase profiling HIPK1; settings: 100 micromolar inhibitor concentration, 100 is no change; for remaining activity at 100 µM: read-out: residual kinase activity, HIPK1
From the text: as §1

MST4 = MST4 (Homo sapiens, UniProt Q9P289); assay: Kinase profiling MST4; settings: 100 micromolar inhibitor concentration, 100 is no change; for remaining activity at 100 µM: read-out: residual kinase activity, MST4
From the text: as §1

MEKK1 = MEKK1 (Homo sapiens, UniProt Q13233); assay: Kinase profiling MEKK1; settings: 100 micromolar inhibitor concentration, 100 is no change; for remaining activity at 100 µM: read-out: residual kinase activity, MEKK1
From the text: as §1

TAO1 = biological target: T2, TAO1 (Homo sapiens, UniProt Q7L7X3); assay: Kinase profiling TAO1; settings: 100 micromolar inhibitor concentration, 100 is no change; for remaining activity at 100 µM: read-out: residual kinase activity, TAO1
T2 sequence (Q7L7X3 1-1001): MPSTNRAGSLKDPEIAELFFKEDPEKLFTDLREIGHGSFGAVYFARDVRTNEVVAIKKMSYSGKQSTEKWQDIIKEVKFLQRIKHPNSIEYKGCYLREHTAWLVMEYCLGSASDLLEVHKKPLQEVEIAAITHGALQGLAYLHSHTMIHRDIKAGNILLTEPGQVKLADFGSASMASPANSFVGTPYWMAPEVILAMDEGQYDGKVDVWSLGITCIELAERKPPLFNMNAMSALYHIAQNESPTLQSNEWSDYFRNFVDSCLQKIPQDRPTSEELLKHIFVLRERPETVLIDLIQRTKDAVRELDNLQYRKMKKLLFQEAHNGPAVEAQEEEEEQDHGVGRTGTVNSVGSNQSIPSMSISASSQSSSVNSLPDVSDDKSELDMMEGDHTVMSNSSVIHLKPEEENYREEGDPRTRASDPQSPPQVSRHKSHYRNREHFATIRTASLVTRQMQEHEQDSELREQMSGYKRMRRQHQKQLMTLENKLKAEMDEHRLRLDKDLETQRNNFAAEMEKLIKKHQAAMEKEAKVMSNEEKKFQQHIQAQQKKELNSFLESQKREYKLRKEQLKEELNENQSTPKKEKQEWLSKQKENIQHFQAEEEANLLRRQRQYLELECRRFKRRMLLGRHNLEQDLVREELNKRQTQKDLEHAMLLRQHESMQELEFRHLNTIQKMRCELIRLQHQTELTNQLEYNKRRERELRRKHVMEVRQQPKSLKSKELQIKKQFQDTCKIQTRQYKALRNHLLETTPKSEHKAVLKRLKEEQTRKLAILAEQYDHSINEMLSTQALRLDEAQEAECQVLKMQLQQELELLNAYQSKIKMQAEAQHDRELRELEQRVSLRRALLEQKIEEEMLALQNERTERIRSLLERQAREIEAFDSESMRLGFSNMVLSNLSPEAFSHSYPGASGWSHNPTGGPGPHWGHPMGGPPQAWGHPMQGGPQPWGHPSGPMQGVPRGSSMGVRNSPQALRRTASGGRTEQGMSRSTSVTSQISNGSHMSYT
From the text: as §1

EPH-B2 = biological target: T3, EPH-B2 (Homo sapiens, UniProt P29323); assay: Kinase profiling EPH-B2; settings: 100 micromolar inhibitor concentration, 100 is no change; for remaining activity at 100 µM: read-out: residual kinase activity, EPH-B2
T3 sequence (P29323 19-1055): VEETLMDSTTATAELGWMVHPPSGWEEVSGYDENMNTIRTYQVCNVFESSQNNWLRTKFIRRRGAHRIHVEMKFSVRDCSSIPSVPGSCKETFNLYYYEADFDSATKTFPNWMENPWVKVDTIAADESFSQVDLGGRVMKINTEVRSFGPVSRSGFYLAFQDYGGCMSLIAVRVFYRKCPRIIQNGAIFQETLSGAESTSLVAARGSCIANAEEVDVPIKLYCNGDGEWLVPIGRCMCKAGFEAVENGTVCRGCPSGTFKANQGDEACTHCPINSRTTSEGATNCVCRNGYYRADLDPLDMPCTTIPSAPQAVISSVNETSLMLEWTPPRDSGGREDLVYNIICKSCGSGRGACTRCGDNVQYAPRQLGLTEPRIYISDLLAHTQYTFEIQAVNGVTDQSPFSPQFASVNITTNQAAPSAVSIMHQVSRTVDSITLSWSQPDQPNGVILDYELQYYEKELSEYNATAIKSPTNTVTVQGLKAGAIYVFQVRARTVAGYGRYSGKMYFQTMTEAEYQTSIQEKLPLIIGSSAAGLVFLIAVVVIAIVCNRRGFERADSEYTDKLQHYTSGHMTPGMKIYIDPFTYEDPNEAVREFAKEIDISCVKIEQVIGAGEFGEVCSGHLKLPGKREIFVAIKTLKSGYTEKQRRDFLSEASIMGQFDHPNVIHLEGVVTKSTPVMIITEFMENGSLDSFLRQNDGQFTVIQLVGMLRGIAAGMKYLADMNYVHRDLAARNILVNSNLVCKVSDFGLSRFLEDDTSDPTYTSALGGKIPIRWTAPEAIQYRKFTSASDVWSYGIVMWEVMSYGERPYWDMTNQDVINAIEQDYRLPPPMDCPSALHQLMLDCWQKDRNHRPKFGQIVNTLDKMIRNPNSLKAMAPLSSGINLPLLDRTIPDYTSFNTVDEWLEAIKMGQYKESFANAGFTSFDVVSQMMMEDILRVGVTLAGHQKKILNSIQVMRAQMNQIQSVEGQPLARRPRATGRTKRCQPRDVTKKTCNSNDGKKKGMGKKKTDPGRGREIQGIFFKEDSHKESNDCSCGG
From the text: as §1

Sequence of MEKK1 (Q13233 whole entry, species assumed): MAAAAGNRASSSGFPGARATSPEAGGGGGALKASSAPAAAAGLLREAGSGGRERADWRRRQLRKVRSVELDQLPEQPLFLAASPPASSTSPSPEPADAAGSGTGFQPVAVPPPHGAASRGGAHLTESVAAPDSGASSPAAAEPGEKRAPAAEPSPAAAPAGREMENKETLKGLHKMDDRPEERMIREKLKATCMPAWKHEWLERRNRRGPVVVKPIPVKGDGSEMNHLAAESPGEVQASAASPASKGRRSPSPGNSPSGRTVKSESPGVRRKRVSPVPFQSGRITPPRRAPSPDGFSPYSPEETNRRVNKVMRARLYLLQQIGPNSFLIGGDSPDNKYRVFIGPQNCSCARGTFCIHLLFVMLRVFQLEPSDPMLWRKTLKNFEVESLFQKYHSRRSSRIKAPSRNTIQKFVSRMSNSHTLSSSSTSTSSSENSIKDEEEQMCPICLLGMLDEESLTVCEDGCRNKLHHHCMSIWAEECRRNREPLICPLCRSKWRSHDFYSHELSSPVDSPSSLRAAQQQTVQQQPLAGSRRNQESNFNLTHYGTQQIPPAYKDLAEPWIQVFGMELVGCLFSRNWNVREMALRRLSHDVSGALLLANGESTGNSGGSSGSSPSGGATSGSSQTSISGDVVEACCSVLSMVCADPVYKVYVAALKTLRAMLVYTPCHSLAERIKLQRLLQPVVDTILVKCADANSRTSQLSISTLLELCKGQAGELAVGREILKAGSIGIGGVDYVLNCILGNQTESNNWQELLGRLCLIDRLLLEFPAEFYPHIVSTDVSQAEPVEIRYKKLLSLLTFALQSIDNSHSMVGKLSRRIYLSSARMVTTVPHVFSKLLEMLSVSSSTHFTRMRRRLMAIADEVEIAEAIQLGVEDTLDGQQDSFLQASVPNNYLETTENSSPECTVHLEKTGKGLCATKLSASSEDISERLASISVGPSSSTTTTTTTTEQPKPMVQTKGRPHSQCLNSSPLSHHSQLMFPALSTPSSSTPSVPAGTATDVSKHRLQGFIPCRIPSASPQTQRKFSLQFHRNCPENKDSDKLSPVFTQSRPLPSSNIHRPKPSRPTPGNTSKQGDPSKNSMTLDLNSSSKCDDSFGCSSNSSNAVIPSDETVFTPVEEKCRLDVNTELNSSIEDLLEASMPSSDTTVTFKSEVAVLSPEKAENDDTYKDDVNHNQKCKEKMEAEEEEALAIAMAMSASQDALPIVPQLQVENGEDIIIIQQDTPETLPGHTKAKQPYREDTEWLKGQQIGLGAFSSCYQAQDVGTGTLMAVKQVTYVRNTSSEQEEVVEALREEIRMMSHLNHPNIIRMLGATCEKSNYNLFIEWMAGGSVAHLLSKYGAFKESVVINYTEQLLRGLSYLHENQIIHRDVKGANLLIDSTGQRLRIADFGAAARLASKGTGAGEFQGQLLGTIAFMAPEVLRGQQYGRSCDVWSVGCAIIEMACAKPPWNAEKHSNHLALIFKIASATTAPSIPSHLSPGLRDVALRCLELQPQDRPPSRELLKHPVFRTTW
Sequence of TTBK2 (Q6IQ55 whole entry, species assumed): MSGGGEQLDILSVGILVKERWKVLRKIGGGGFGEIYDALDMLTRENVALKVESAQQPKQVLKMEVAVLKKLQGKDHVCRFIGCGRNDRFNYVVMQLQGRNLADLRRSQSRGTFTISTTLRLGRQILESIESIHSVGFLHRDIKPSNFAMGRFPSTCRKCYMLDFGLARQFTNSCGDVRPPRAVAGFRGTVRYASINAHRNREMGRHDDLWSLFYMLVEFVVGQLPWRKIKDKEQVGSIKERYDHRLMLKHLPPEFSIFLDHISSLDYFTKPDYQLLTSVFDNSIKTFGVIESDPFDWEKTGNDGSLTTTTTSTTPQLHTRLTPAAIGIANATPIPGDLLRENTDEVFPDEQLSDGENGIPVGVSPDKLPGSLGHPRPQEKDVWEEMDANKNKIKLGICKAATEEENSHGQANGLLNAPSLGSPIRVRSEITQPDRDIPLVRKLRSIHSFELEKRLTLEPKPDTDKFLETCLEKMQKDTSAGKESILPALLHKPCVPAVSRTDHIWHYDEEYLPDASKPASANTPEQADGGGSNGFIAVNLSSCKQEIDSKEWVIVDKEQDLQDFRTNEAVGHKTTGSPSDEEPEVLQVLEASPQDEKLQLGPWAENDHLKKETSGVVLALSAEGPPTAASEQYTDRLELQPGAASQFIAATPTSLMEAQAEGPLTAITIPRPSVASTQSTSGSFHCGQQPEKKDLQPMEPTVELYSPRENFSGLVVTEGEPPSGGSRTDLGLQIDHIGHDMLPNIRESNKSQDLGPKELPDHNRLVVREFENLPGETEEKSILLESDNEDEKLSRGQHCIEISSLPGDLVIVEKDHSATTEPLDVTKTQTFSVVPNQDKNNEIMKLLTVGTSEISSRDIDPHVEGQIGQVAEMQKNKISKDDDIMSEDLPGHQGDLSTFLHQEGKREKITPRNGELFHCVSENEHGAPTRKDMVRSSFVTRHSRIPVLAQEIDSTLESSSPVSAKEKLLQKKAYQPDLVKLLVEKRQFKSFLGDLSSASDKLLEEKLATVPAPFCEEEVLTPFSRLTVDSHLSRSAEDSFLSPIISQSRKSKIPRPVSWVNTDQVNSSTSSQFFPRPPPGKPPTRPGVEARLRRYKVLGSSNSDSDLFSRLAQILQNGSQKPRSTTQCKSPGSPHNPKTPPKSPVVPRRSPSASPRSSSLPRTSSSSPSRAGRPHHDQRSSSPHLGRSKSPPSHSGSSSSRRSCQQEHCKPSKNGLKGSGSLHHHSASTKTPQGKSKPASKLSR
Sequence of SIK3 (Q9Y2K2 whole entry, species assumed): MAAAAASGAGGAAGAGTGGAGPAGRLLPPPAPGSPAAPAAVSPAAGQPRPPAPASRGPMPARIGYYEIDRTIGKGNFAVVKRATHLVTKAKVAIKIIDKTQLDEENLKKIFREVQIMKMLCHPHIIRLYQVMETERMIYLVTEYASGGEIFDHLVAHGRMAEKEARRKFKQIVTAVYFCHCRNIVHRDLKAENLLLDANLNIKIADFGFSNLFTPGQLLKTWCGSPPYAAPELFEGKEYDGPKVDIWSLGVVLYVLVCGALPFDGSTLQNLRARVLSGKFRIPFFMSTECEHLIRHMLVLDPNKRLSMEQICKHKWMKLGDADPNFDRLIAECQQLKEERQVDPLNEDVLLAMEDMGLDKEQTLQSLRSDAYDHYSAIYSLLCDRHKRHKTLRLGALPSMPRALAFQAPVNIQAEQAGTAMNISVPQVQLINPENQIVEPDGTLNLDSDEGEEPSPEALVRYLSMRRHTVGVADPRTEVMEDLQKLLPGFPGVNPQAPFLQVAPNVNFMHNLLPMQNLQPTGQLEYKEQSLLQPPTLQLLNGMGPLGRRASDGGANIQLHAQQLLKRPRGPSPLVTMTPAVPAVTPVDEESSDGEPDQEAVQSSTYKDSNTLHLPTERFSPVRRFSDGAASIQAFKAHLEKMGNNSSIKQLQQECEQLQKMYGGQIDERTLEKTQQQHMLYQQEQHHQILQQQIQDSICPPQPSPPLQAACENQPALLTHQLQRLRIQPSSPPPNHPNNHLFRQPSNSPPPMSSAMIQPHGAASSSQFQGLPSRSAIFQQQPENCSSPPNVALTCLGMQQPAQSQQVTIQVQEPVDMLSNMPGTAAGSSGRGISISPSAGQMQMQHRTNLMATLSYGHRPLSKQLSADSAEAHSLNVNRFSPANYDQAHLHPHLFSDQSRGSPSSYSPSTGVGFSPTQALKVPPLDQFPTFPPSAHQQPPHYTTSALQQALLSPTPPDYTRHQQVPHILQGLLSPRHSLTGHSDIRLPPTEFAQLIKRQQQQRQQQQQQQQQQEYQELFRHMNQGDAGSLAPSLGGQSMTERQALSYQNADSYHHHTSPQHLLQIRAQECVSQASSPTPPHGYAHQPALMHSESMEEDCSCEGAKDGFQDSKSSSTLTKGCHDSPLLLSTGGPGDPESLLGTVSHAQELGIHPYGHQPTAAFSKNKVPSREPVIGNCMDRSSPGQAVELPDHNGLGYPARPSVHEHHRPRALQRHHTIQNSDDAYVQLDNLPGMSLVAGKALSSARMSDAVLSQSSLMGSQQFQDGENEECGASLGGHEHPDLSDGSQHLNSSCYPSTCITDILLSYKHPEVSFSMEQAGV
Sequence of MST4 (Q9P289 whole entry, species assumed): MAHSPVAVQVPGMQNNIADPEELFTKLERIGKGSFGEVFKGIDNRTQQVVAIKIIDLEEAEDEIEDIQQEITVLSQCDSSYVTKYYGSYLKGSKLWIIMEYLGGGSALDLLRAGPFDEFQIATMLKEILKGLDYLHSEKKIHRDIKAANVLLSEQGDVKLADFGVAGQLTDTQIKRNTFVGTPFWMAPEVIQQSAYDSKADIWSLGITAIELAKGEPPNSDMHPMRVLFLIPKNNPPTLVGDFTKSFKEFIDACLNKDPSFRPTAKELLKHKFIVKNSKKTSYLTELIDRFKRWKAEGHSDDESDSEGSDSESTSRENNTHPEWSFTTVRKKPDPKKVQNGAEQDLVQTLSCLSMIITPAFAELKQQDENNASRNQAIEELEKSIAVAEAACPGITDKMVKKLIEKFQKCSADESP

| Structure (SMILES) | remaining activity at 100 µM (SIK3) | remaining activity at 100 µM (TTBK2) | remaining activity at 100 µM (NEK2a) | remaining activity at 100 µM (HIPK1) | remaining activity at 100 µM (MST4) | remaining activity at 100 µM (MEKK1) | remaining activity at 100 µM (TAO1) | remaining activity at 100 µM (EPH-B2) | residual kinase activity, SIK3 (SIK3) | residual kinase activity, TTBK2 (TTBK2) | residual kinase activity, NEK2a (NEK2a) | residual kinase activity, HIPK1 (HIPK1) | residual kinase activity, MST4 (MST4) | residual kinase activity, MEKK1 (MEKK1) | residual kinase activity, TAO1 (TAO1) | residual kinase activity, EPH-B2 (EPH-B2) |
| --- | --- | --- | --- | --- | --- | --- | --- | --- | --- | --- | --- | --- | --- | --- | --- | --- |
| CC(=O)Nc1nc2cc(C(F)(F)F)ccc2s1 [Compound 03-73] | 103% | 91% | 94% | 74% | 91% | 111% | 88% | 98% | – | – | – | – | – | – | – | – |
| CC(=O)Nc1nc2cc(C)ccc2s1 [Compound 03-76] | – | – | – | – | – | – | – | – | 103 | 97 | 95 | 53 | 103 | 107 | 76 | 108 |
| CC(=O)Nc1nc2cc(F)ccc2s1 [Compound 03-77] | 89% | 93% | 90% | 40% | 88% | 102% | 69% | 114% | – | – | – | – | – | – | – | – |
| O=C(Nc1nc2ccc(O)cc2s1)c1ccncc1 [Compound 08-42] | – | – | – | – | – | – | – | – | 67 | 74 | 79 | 44 | 79 | 76 | 81 | 99 |
| O=C(Nc1nc2ccc(O)cc2s1)c1cccnc1 [Compound 08-44] | – | – | – | – | – | – | – | – | 80 | 51 | 74 | 43 | 80 | 107 | 68 | 91 |
